# Results taken from patent US9359279B2, “Treatment of cancer, inflammatory disease, and autoimmune disease” (AndroScience Corporation, priority 2010, dated 2016).
# pIC50: −log10 of the molar value. Structures can show the parent of a compound that is named as a salt.
# Tests used:
# [1] = tested on: human Lennert's T cell lymphoma KT-3 cells; assay: Inhibition of IL-6-induced proliferation of KT-3 cells (CellTiter Glo viability); format: cell-based; details: read-out: IC50 (the concentration at which a compound suppresses cell growth by 50%), hIL-6 2.5 ng/ml, 48 hours
# Description: Inhibitory Effects on Proliferation of Human Lernert's T Cell Lymphoma KT-3
# Inhibitory effects of compounds of this invention on the growth of human Lennert's T cell lymphoma KT-3 cells, an IL-6-dependent cell line, were determined as described below. […] To experimental wells, test compounds at various concentrations (in triplicates) were added immediately after the cells were plated. To the control wells, an equal volume of vehicle, DMSO (0.1% v/v), was added. After incubating the cells with the compounds or in vehicle for 48 hours, cell viability was assessed using a CellTiter Glo Luminescent Cell Viability Assay Kit (Promega, Madison, Wis.). The resultant luminescence was quantified using Microplate Luminometer LB96V (EG&G BERTH HOLD) according to the manufacturer's protocol. The cell surviving rate was calculated by dividing the luminescence value of compound-treated cells with that of vehicle-treated cells.
# [2] = Inhibition of growth of various human tumor cell lines (MTT); format: cell-based; details: Homo sapiens, range over all tumor cell lines tested, 72 h, read-out: IC50 values, growth of all tumor cells tested
# Description: (§1) Inhibition of Growth of Various Human Tumor Cell Lines
# (§2) The inhibitory effects of Compound 6 were determined as described below on the growth of colon cancer cells (HCT116, HT29, SW480, and SW620), colon adenocarcinoma cells (Colo205), prostate adenocarcinoma cells (PC-3 and Dul145), prostate carcinoma cells (CWR22RV and LNCap), non-small cell lung carcinoma cells (NCI-H1299), lung adnocarcinoma cells (A549), large cell lung carcinoma cells (NCI-H460), breast metastatic carcinoma cells (MDA-MB-453), breast ductal carcinoma cells (T-47D), breast adnocarcinoma cells (MCF7), hepatocellular carcinoma cells (Huh-7 and HepG2), pancreatic carcinoma cells (PANC-1), cervix adnocarcinoma cells (Hela), IL-6-dependent Lennert's T-cell lymphoma cells (KT-3), IL-6-dependent multiple myeloma cells (INA-6), multiple myeloma cells (KMM-1 and U266), myeloid leukemia cells (HL-60), and T-cell leukemia cells (Jurkat). […] The viability of the tumor cells was then assessed using the tetrazolium-based calorimetric assay (MTT) as described in Su et al., J Mol Cell Cardiol. […] The resultant formazan crystals were solubilized with MTT lysis buffer (50% DMF, 24 mM HCl, 2% Acetic Acid, 5% SDS) and the absorbance at 595 nm was measured using a Benchmark microplate reader (BIO-RAD, Hercules, Calif.). […]
# [3] = tested on: various human tumor cell lines (HCT116, HT29, SW480, SW620, Colo205, PC-3, Dul145, CWR22RV, LNCap, NCI-H1299, A549, NCI-H460, MDA-MB-453, T-47D, MCF7, Huh-7 …); assay: as above; format: cell-based; details: 0 to 5 μM, 72 h
# Description: as §1, §2
# STAT1 = assay: Western blot analysis of STAT1 protein in KT-3 cells; format: cell-based, human; details: KT-3 cells, 1, 5, or 20 μM, 0.5-6 hours
# Description: (§3) Western Blot Analysis of MRG, STAT1, STAT3, and STAT5 Proteins in KT-3 Cells
# (§4) Western Blot analysis was performed as described in Kawashima et al., J. Immunol. 2001, 167:3652-3660, with minor modifications. Briefly, KT-3 cells were treated with 1, 5, or 20 μM of compound 6 or vehicle alone in the above described IL-6-containing medium. At various time points after incubation (i.e., 0.5, 1, 3, and 6 hours after the treatment), cells were harvested and lysed using a lysis buffer (1.0% Triton X-100, 50 mM Tris-HCl (pH 7.5), 0.1 mM EDTA, 150 mM NaCl, 200 μM Na3VO4, 50 mM NaF, 1 mM dithiothreitol, 0.4 mM phenylmethylsulfonyl fluoride, 3 μg/ml of aprotinin, 2 μg/ml of pepstatin A, 1 μg/ml of leupeptin) at 2×10^7 cells/ml on ice for 30 min. Cell lysates were harvested by centrifugation at 12,000×g for 15 min. The samples (1×10^5 cell equivalent/lane) were subjected to sodium dodecyl sulfate-polyacrylamide gel electrophoresis and subsequently transferred onto Immobilon filters (Millipore). After blocked with 5% BSA, the filter was probed with anti-pSTAT3, STAT3, STAT5, STAT1, MRG or Actin Abs. The rabbit polyclonal anti-STAT3, anti-STAT5, anti-STAT1, and anti-Actin antibodies (Abs), and mouse monoclonal anti-pSTAT3 Ab (B-7) were obtained from Santa Cruz Biotechnology. Affinity purified anti-MRG Ab was prepared as described previously in Hirose et al., J. Biol. Chem. 276:5821-5828. […]
# HCT-116 cells = assay: Human colon cancer (HCT-116) mouse xenograft model; format: in vivo; details: athymic nude mice, HCT-116 xenograft, 40 mg/kg i.p. daily, days 0-4 and 7-10
# Description: Inhibitory Effect on Human Colon Cancer (HCT-116) in a Mouse Xenograft Model
# The in vivo experiments were carried out under an Institutional Animal Care and Use Committee-approved protocol and followed Institutional guidelines for proper and humane use of animals in research. Six-week-old female athymic nude mice were purchased from the Harlan Laboratory. Each of eight mice was injected subcutaneously with 1×10^6 HCT-116 cells mixed with Matrigel (BD Bioscience) at the left flank. After injection, tumors were allowed to grow for 5 days into a palpable size (volume ˜100 mm^3) before treatment. Mice were randomized into two groups (n=4 per group). The control group was injected with a vehicle solution only (i.e., 10% DMSO and 90% corn oil), while the experimental group received a daily injection (i.p.) of compound 6 (at a dose of 40 mg/kg body weight, dissolved in the vehicle solution) from days 0 (the initiation day of injection) to 4 and from days 7 to 10. The sizes of tumors were measured twice a week using a Vernier caliper and calculated using the following formula: length×width×height×0.5236, as described in Rockwell et al., J Natl. Cancer Inst. 1972; 49:735-747.
# STAT5 = assay: Western blot analysis of STAT5 protein in KT-3 cells; format: cell-based, human; details: KT-3 cells, 1, 5, or 20 μM, 0.5-6 hours
# Description: as §3, §4
# pSTAT3 = assay: Western blot analysis of STAT3 phosphorylation (pSTAT3) in KT-3 cells; format: cell-based, human; details: KT-3 cells, 1, 5, or 20 μM, 0.5-6 hours
# Description: as §3, §4
# MRG (MgcRacGAP) = assay: Western blot analysis of MRG protein in KT-3 cells; format: cell-based, human; details: KT-3 cells, 1, 5, or 20 μM, 0.5-6 hours
# Description: as §3, §4
# STAT3 = assay: Western blot analysis of STAT3 protein in KT-3 cells; format: cell-based, human; details: KT-3 cells, 1, 5, or 20 μM, 0.5-6 hours
# Description: as §3, §4
pIC50 [1],melting point,Compound,further results
≥ 7.30,,CCS(=O)(=O)Oc1cccc(/C=C/C(=O)/C=C/c2cccc(OS(=O)(=O)CC)c2OS(=O)(=O)CC)c1 [Compound 26],
≥ 7.30,,CCN(CC)CCOc1cccc(/C=C2\CN(C(=O)C3CC3)C/C(=C\c3cccc(OCCN(CC)CC)c3)C2=O)c1 [Compound 46],
,104 to 106 °C,CCN(CC)CCOc1cccc(/C=C/C(=O)/C=C/c2cccc(O)c2)c1 (as salt: succinic acid salt) [Compound 47],
≥ 7.30,,O=C(/C=C/c1cccc(O)c1)/C=C/c1cccc(OCCN2CCCCC2)c1 [Compound 57],
,102 to 103 °C,CCS(=O)(=O)Oc1cccc(/C=C/C(=O)/C=C/c2ccc(OS(=O)(=O)CC)c(OS(=O)(=O)CC)c2)c1 [Compound 43],
≥ 7.30,,CCN(CC)CCOc1cccc(/C=C/C(=O)/C=C/c2cccc(O)c2O)c1 [Compound 35],
≥ 7.30,,CCN(CC)CCOc1cccc(/C=C/C(=O)/C=C/c2cccc(OCCN(CC)CC)c2O)c1 [Compound 36],
≥ 7.30,,CCN(CC)CCOc1cccc(/C=C2\CN(C(=O)C3CC3)C/C(=C\c3cccc(O)c3)C2=O)c1 [Compound 45],
,152 to 153 °C,COc1ccc(/C=C/C(=O)/C=C/c2cccc(O)c2)cc1 [Compound 39],
≥ 7.30,,CCS(=O)(=O)Oc1cccc(/C=C/C(=O)/C=C/c2cccc(OS(=O)(=O)CC)c2)c1 [Compound 6],pIC50 [2]: 5.26 to 7.70; inhibitory effects on the growth of all tumor cells tested [3]: dose-dependent inhibitory effects; expression of STAT1 (STAT1): no effect; human colon cancer growth (tumor size) (HCT-116 cells): inhibited human colon cancer growth; STAT5 protein level (STAT5): down-regulated; phosphorylation of STAT3 protein (pSTAT3): inhibited phosphorylation; MRG protein level (MRG (MgcRacGAP)): down-regulated; STAT3 protein level (STAT3): down-regulated
≥ 7.30,,CCN(CC)CCOc1cccc(/C=C/C(=O)/C=C/c2cccc(O)c2)c1 [Compound 19],
≥ 7.30,,CCS(=O)(=O)Oc1cccc(/C=C/C(=O)/C=C/c2cc(OS(=O)(=O)CC)cc(OS(=O)(=O)CC)c2)c1 [Compound 27],
≥ 7.30,,O=C1/C(=C/c2cccc(O)c2)CN(C(=O)C2CC2)C/C1=C\c1cccc(O)c1 [Compound 16],
,138 to 139 °C,O=C(/C=C/c1cccc(O)c1)/C=C/c1cccc(C(F)(F)F)c1 [Compound 41],
,159 to 160 °C,COc1ccc(/C=C/C(=O)/C=C/c2cccc(O)c2)cc1OC [Compound 38],
≥ 7.30,,O=C(/C=C/c1cccc(O)c1)/C=C/c1cccc(OCCCN2CCCCC2)c1 [Compound 56],
,159 to 160 °C,O=C(/C=C/c1cccc(O)c1)/C=C/c1ccccc1F [Compound 42],

Compound,pIC50 [1],melting point,further results
CCP(=O)(CC)Oc1cccc(/C=C/C(=O)/C=C/c2cccc(OP(=O)(CC)CC)c2)c1 [Compound 18],≥ 7.30,,
